Measurements as given in patent US10787446B2 (GENENTECH, INC., priority 2015, dated 2020).

Target: T1, hNav1.7 and the β1 subunit (Homo sapiens, UniProt Q15858)
T1 construct: expressed in transfected cells
Assay: Tritiated compound competitive binding to membranes from cells heterologously expressing hNav1.7 and the β1 subunit (LBA)
Conditions: competition with 100 pM [3H]compound, 18 h, room temperature; IC50 by 4 parameter logistic model
Method: Example 235 Tritiated Compound Binding to Membranes Isolated from Cells that Heterologously Express hNav1.7 and the β1 Subunit
Preparation of membranes containing recombinantly expressed sodium channels: Frozen recombinant cell pellets were thawed on ice and diluted to 4 times the cell pellet weight with ice cold 50 mM Tris HCl, pH 7.4 buffer. The cell suspensions were homogenized on ice using a motorized glass dounce homogeniser. Homogenates were further diluted 8.4 times with ice cold 50 mM Tris HCl, pH 7.4 buffer and then centrifuged at 200×g at 4° C. for 15 min. The supernatants were collected and centrifuged at 10000×g at 4° C. for 50 min. The pellets were then re-suspended in 100 mM NaCl, 20 mM Tris HCl, pH 7.4 buffer containing 1% v/v protease inhibitors (Calbiochem) and re-homogenized on ice. The homogenized membranes were then processed through a syringe equipped with a 26 gauge needle. Protein concentrations were determined by Bradford Assay and the membranes were stored at −80° C.
Radioligand Binding Studies:
Saturation experiments. A competitive NaV1.7 inhibitor having a methyl group was tritiated. Three tritiums were incorporated in place of methyl hydrogens to generate [^3H]compound. Binding of this radioligand was performed in 5 mL borosilicate glass test tubes at room temperature. Binding was initiated by adding membranes to increasing concentrations of [^3H]compound in 100 mM NaCl, 20 mM Tris HCl, pH 7.4 buffer containing 0.01% w/v bovine serum albumin (BSA) for 18 h. […] After 18 h, the reactants were filtered through GF/C glass fiber filters presoaked in 0.5% w/v polyethylene imine. […] [^3H]compound bound to filters was quantified by liquid scintillation counting.
Competitive Binding Experiments:
Binding reactions were performed in 96-well polypropylene plates at room temperature for 18 h. In 360 μL, membranes were incubated with 100 pM [^3H]compound and increasing concentrations of Test Compound. […] Reactions were transferred and filtered through 96-well glass fiber/C filter plates presoaked with 0.5% polyethylene imine. The filtered reactions were washed 5 times with 200 μL ice cold buffer containing 0.25% BSA. Bound radioactivity was determined by liquid scintillation counting.
Data Analysis: For saturation experiments, non-specific binding was subtracted from total binding to provide specific binding and these values were recalculated in terms of pmol ligand bound per mg protein. Saturation curves were constructed and dissociation constants were calculated using the single site ligand binding model: Beq=(Bmax*X)/(X+Kd), where Beq is the amount of ligand bound at equilibrium, Bmax is the maximum receptor density, Kd is the dissociation constant for the ligand, and X is the free ligand concentration. For competition studies percent inhibition was determined and IC50 values were calculated using a 4 parameter logistic model (% inhibition=(A+((B−A)/(1+((x/C)^D)))) using XLfit, where A and B are the maximal and minimum inhibition respectively, C is the IC50 concentration and D is the (Hill) slope.

T1 sequence (Q15858 whole entry): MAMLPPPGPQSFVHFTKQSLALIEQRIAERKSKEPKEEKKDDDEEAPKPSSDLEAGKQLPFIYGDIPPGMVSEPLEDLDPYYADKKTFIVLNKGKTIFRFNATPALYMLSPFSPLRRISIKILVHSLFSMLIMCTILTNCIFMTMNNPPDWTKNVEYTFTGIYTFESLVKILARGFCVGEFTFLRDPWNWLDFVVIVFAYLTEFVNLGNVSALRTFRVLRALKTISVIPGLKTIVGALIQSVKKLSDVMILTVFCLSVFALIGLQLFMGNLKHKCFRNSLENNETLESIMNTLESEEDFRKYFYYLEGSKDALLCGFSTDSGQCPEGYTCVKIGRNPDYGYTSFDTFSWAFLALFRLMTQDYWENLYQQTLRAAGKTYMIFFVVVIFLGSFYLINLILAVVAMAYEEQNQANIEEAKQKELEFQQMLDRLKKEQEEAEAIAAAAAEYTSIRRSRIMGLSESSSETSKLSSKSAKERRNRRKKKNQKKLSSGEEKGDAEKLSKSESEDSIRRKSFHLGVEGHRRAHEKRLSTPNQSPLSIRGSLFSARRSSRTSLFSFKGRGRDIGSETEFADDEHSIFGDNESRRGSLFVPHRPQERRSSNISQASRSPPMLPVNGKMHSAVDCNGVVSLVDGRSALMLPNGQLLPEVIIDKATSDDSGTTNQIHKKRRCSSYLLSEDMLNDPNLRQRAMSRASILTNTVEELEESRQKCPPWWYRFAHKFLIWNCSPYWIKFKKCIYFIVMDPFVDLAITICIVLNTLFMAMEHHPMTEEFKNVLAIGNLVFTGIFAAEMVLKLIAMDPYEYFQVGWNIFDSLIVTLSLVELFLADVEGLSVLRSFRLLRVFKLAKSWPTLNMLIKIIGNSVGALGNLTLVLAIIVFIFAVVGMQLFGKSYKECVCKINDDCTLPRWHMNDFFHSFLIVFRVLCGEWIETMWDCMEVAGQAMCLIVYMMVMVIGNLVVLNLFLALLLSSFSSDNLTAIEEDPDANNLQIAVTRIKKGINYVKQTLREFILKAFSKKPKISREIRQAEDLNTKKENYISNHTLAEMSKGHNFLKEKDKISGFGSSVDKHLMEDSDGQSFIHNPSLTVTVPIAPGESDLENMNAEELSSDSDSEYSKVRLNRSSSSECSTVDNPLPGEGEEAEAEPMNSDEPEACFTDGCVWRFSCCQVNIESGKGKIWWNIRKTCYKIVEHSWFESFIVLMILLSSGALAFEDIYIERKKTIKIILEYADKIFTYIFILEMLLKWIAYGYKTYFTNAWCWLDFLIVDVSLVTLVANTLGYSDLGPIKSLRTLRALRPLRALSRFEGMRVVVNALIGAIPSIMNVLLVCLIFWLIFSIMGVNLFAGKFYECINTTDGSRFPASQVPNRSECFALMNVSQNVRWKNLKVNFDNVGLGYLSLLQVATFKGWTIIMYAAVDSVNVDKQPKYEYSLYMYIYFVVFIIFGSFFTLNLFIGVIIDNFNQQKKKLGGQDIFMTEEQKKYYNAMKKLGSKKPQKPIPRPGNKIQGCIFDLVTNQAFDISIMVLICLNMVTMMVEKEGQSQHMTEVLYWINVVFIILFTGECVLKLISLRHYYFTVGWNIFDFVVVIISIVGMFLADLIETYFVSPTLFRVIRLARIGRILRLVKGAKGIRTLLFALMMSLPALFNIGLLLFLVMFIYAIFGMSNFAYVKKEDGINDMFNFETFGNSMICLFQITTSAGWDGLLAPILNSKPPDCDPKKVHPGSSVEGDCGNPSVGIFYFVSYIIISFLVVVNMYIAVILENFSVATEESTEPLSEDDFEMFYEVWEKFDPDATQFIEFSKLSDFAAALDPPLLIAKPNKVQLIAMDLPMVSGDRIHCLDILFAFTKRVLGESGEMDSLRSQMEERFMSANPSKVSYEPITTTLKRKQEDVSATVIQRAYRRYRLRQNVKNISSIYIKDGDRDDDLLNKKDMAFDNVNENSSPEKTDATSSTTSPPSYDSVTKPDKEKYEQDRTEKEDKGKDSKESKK
T1 sequence (Q07699 19-218 partner): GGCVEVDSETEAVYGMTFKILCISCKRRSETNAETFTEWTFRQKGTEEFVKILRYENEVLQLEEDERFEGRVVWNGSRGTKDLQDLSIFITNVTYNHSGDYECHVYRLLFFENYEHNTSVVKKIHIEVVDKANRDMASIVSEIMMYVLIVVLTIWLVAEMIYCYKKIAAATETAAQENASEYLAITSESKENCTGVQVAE

Row | Nav1.7 (LBA) | Compound
1 | 0.601 µM | Cn1nccc1[C@@H]1C[C@H](C(F)(F)F)CCN1[C@@H]1CCOc2cc(S(=O)(=O)Nc3ncns3)ccc21 (single isomer, unassigned) [Example 124]
2 | 0.00448 µM | Cn1nccc1[C@H]1C[C@@H](C(F)(F)F)CCN1[C@H]1CCOc2cc(S(=O)(=O)Nc3ncns3)ccc21 (single isomer, unassigned) [Example 125]
3 | 0.313 µM | Cn1nccc1[C@H]1C[C@@H](C(F)(F)F)CCN1[C@@H]1CCOc2cc(S(=O)(=O)Nc3ncns3)ccc21 (single isomer, unassigned) [Example 126]
4 | 0.00883 µM | CC(C)[C@@H]1CCN([C@H]2CCOc3cc(S(=O)(=O)Nc4ncns4)ccc32)[C@H](c2ccccc2)C1 (single isomer, unassigned) [Example 127]
5 | 0.469 µM | CC(C)[C@@H]1CCN([C@@H]2CCOc3cc(S(=O)(=O)Nc4ncns4)ccc32)[C@H](c2ccccc2)C1 (single isomer, unassigned) [Example 128]
6 | 0.0168 µM | CC(C)[C@H]1CCN([C@H]2CCOc3cc(S(=O)(=O)Nc4ncns4)ccc32)[C@@H](c2ccccc2)C1 (single isomer, unassigned) [Example 129]
7 | 0.109 µM | CC(C)[C@H]1CCN([C@@H]2CCOc3cc(S(=O)(=O)Nc4ncns4)ccc32)[C@@H](c2ccccc2)C1 (single isomer, unassigned) [Example 130]
8 | 0.00851 µM | O=S(=O)(Nc1ncns1)c1ccc2c(c1)OCC[C@@H]2N1CCC(F)(F)C[C@@H]1c1ccc(F)cc1 (single isomer, unassigned) [Example 131]
9 | 0.0757 µM | O=S(=O)(Nc1ncns1)c1ccc2c(c1)OCC[C@H]2N1CCC(F)(F)C[C@@H]1c1ccc(F)cc1 (single isomer, unassigned) [Example 132]
10 | 0.0467 µM | O=S(=O)(Nc1ncns1)c1ccc2c(c1)OCC[C@H]2N1CCC(F)(F)C[C@H]1c1ccc(F)cc1 (single isomer, unassigned) [Example 133]
11 | 0.00295 µM | O=S(=O)(Nc1ncns1)c1ccc2c(c1)OCC[C@@H]2N1CCC(F)(F)C[C@H]1c1ccc(F)cc1 (single isomer, unassigned) [Example 134]
12 | 0.0271 µM | CC(C)(O)[C@H]1CCN([C@@H]2CCOc3cc(S(=O)(=O)Nc4ncns4)ccc32)[C@@H](c2ccc(F)cc2)C1 (single isomer, unassigned) [Example 135]
13 | 0.0194 µM | CC(C)(O)[C@H]1CCN([C@H]2CCOc3cc(S(=O)(=O)Nc4ncns4)ccc32)[C@@H](c2ccc(F)cc2)C1 (single isomer, unassigned) [Example 136]
14 | 0.736 µM | CC(C)(O)[C@@H]1CCN([C@@H]2CCOc3cc(S(=O)(=O)Nc4ncns4)ccc32)[C@H](c2ccc(F)cc2)C1 (single isomer, unassigned) [Example 137]
15 | 0.0035 µM | CC(C)(O)[C@@H]1CCN([C@H]2CCOc3cc(S(=O)(=O)Nc4ncns4)ccc32)[C@H](c2ccc(F)cc2)C1 (single isomer, unassigned) [Example 138]
16 | 2.29 µM | O=S(=O)(Nc1ncns1)c1ccc2c(c1)OCC[C@H]2N1CCC(F)(F)C[C@H]1c1ccccc1 (single isomer, unassigned) [Example 139]
17 | 0.0144 µM | O=S(=O)(Nc1ncns1)c1ccc2c(c1)OCC[C@@H]2N1CCC(F)(F)C[C@H]1c1ccccc1 (single isomer, unassigned) [Example 140]

Row | Nav1.7 (LBA) | Compound
18 | 0.486 µM | O=S(=O)(Nc1ncns1)c1ccc2c(c1)OCC[C@H]2N1CCC(F)(F)C[C@@H]1c1ccccc1 (single isomer, unassigned) [Example 141]
19 | 0.0173 µM | O=S(=O)(Nc1ncns1)c1ccc2c(c1)OCC[C@@H]2N1CCC(F)(F)C[C@@H]1c1ccccc1 (single isomer, unassigned) [Example 142]
20 | 8.9 µM | O=S(=O)(Nc1ncns1)c1ccc2c(c1)OCC[C@@H]2N1CC[C@@H](C(F)(F)F)C[C@H]1c1ccn[nH]1 (single isomer, unassigned) [Example 143]
21 | 0.282 µM | O=S(=O)(Nc1ncns1)c1ccc2c(c1)OCC[C@H]2N1CC[C@@H](C(F)(F)F)C[C@H]1c1ccn[nH]1 (single isomer, unassigned) [Example 144]
22 | 0.0117 µM | O=S(=O)(Nc1ncns1)c1ccc2c(c1)OCC[C@@H]2N1CC[C@H](C(F)(F)F)C[C@@H]1c1ccn[nH]1 (single isomer, unassigned) [Example 145]
23 | 0.308 µM | O=S(=O)(Nc1ncns1)c1ccc2c(c1)OCC[C@H]2N1CC[C@H](C(F)(F)F)C[C@@H]1c1ccn[nH]1 (single isomer, unassigned) [Example 146]
24 | 3.51 µM | O=S(=O)(Nc1ncns1)c1ccc2c(c1)OCC[C@@H]2N1CCCC[C@H]1CCO (single isomer, unassigned) [Example 151]
25 | 3.31 µM | O=S(=O)(Nc1ncns1)c1ccc2c(c1)OCC[C@@H]2N1CCCC[C@@H]1CCO (single isomer, unassigned) [Example 152]
26 | 4.35 µM | O=S(=O)(Nc1ncns1)c1ccc2c(c1)OCC[C@@H]2N1CCCC[C@H]1C1CCCCC1 (single isomer, unassigned) [Example 155]
27 | 0.907 µM | O=S(=O)(Nc1ncns1)c1ccc2c(c1)OCC[C@@H]2N1CCCC[C@@H]1C1CCCCC1 (single isomer, unassigned) [Example 156]
28 | 0.249 µM | O=S(=O)(Nc1ncns1)c1ccc2c(c1)C(F)(F)CC[C@@H]2N1CCCC[C@H]1c1cccnc1 (single isomer, unassigned) [Example 227]
29 | 0.504 µM | O=S(=O)(Nc1ncns1)c1ccc2c(c1)C(F)(F)CC[C@H]2N1CCCC[C@H]1c1cccnc1 (single isomer, unassigned) [Example 228]
30 | 0.00609 µM | Cn1nccc1[C@@H]1CCCCN1[C@H]1CCOc2cc(S(=O)(=O)Nc3ncns3)ccc21 [Example 41, (S)-4-((S)-2-(1-methyl-1H-pyrazol-5-yl)piperidin-1-yl)-N-(1,2,4-thiadiazol-5-yl)chromane-7-sulfonamide]
31 | 0.142 µM | Cn1nccc1[C@H]1CCCCN1[C@H]1CCOc2cc(S(=O)(=O)Nc3ncns3)ccc21 [Example 42, (S)-4-((R)-2-(1-methyl-1H-pyrazol-5-yl)piperidin-1-yl)-N-(1,2,4-thiadiazol-5-yl)chromane-7-sulfonamide]
32 | 0.551 µM | O=S(=O)(Nc1ncns1)c1ccc2c(c1)OCC[C@@H]2N1CCC(C(F)(F)F)CC1 [Example 44, (S)—N-(1,2,4-thiadiazol-5-yl)-4-(4-(trifluoromethyl)piperidin-1-yl)chromane-7-sulfonamide]
33 | 1.48 µM | O=S(=O)(Nc1ncns1)c1ccc(CN2CCC[C@H]2c2ccccc2)c(Cl)c1 [Example 48, (S)-3-chloro-4-((2-phenylpyrrolidin-1-yl)methyl)-N-(1,2,4-thiadiazol-5-yl)benzenesulfonamide]
34 | 6.81 µM | O=S(=O)(Nc1ncns1)c1ccc(CN2CCC[C@@H]2c2ccccc2)c(Cl)c1 [Example 49, (R)-3-chloro-4-((2-phenylpyrrolidin-1-yl)methyl)-N-(1,2,4-thiadiazol-5-yl)benzenesulfonamide]
